Legend:
[1] = tested on: zebra fish Crohn's disease model established with TNBS; assay: Efficacy in zebra fish Crohn's disease model (intestinal area, diameter, therapeutic ratio); assay type: in vivo; conditions: 10 μM in fish farm water, 48 hours
Procedure: Meanwhile, the positive control group, blank control group, Crohn's disease model group and excipient control group were set in the research. In the positive control group, the prednisolone was finally at concentration of 10 μM in fish farm water. The enema excipient disclosed in Chinese patent (CN 1192787 C) was used in the excipient control group, including adding PEG-400 solutions containing tragacanth and potassium sorbate into the fish farm water in the volume ratio of 0.3%. Wherein, the PEG-400 solution was prepared following method: adding 1.5 g of tragacanth and 2 g of potassium sorbate (particle size of 150 μm) into 28ml PEG.
30 zebra fish were randomly given to each group. […] The image analysis software was used to analyze the pictures. Meanwhile, intestine mucosal thickness, intestinal diameter and intestinal area were observed carefully under the microscope and the intestinal diameter and intestinal area analyzed quantitatively. Therapeutic ratio of tested drug in zebra fish Crohn's disease was calculated in accordance with the intestinal area in each group. The calculation formula was present as follows: […]
Variance analysis was used for comparison among many groups and Dunnett's T test for comparison between two groups.

[2] = tested on: transgenic neutrophil fluorescent zebra fish Crohn's disease model; conditions: 10 μM in fish farm water
[3] = tested on: zebra fish Crohn's disease model; assay: Histopathology of intestinal tissue in zebra fish Crohn's disease model (H&E); assay type: in vivo; conditions: 10 μM in fish farm water

## C[C@]12C=CC(=O)C=C1CC[C@@H]1[C@@H]2[C@@H](O)C[C@@]2(C)[C@H]1CC[C@]2(O)C(=O)CO [prednisolone]
[1]
  Intestinal area (Mean ± SD): 48646 ± 4685
  Intestinal area, Ratio of blank control group (Mean ± SE): 1.31 ± 0.04
  Intestinal diameter (Mean ± SD): 137 ± 11
  Intestinal diameter, Ratio of blank control group (Mean ± SE): 1.02 ± 0.03
[1]; from intestinal area
  Therapeutic ratio (%) (Mean ± SE): 74±3.40%
[2]
  Inflammation regression ratio (%) (Mean ± SE): 81±2.48%
  Number of neutrophil (Mean ± SD): 20 ± 1
  Number of neutrophil, Ratio of the blank control group (Mean ± SE): 1.22 ± 0.03
[3]
  Intestinal histopathology (H&E): the intestinal mucosal histopathology was improved obviously

— patent publication US20160220602A1, “USE OF CHINESE MEDICINE PREPARATION IN PREPARING DRUG FOR PREVENTING AND/OR TREATING CROHN'S DISEASE” (TASLY PHARMACEUTICAL GROUP CO., LTD., priority 2013, published 2016)
